Source: ChEMBL document CHEMBL1148463, “Gamma-amino-substituted analogues of 1-[(S)-2,4-diaminobutanoyl]piperidine as highly potent and selective dipeptidyl peptidase II inhibitors” (J Med Chem, 2004)

What was measured:
Dipeptidyl peptidase 4 = Dipeptidyl peptidase 4 (Homo sapiens, UniProt P27487); test: Inhibition of human Dipeptidylpeptidase IV (DPP IV)
Dipeptidyl peptidase 2 = Dipeptidyl peptidase 2 (Homo sapiens, UniProt Q9UHL4); test: Inhibition of human Dipeptidylpeptidase II (DPP II)
[1] = target: Dipeptidyl peptidase II and dipeptidyl peptidase IV (DPP2 and DPP4) (Homo sapiens) (UniProt P27487+Q9UHL4); test: Ratio of IC50 for DPP IV to that of IC50 for DPP II; type: protein assay
[2] = Inhibition of human Dipeptidylpeptidase II (DPP II)

Chain of Dipeptidyl peptidase 4 (P27487 whole entry): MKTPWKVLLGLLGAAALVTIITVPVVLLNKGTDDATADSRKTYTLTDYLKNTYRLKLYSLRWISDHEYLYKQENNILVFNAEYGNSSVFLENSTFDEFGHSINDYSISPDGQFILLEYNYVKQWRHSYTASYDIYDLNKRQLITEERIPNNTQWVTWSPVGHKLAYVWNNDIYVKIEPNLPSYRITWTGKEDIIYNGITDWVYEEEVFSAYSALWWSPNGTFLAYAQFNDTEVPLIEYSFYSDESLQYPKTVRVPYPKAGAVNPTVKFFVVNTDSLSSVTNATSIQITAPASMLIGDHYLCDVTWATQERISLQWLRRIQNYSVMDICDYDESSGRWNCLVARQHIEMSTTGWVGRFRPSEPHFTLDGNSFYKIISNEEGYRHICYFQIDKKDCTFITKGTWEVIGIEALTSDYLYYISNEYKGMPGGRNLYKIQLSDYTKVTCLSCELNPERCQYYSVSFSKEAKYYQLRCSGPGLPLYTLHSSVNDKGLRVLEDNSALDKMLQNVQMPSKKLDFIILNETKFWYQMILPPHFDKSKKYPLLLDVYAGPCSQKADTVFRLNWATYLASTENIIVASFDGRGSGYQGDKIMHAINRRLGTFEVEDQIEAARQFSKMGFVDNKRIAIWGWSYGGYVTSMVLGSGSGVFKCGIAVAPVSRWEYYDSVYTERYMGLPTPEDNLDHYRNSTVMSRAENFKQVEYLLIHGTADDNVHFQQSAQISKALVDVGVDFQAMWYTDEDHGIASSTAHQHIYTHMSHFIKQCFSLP

Structure (SMILES)	IC50 (Dipeptidyl peptidase 4) [µM]	IC50 (Dipeptidyl peptidase 2) [µM]	SI [1]	IC50 [2] [µM]
N#Cc1cccc(CNCC[C@H](N)C(=O)N2CCCCC2)c1	132	0.0027	50000	
NCC[C@H](NC1CCNCC1)C(=O)N1CCCCC1	> 1000	0.017	> 59	
COc1cccc(CNCC[C@H](N)C(=O)N2CCCCC2)c1	250	0.00177	140000	
NCC[C@H](N)C(=O)N1CCCCC1	> 1000		> 7600	0.13
N[C@@H](CCNCc1ccc(Cl)cc1)C(=O)N1CCCCC1	165	0.00048	340000	
NCC[C@H](N=C(N)N)C(=O)N1CCCCC1	> 1000	0.0074	> 140	
CN[C@@H](CCNCc1ccc(Cl)cc1)C(=O)N1CCCCC1	> 500	0.187	> 2700	
N[C@@H](CCNCc1ccc(Cl)cc1)C(=O)N1CCC(F)CC1	70	0.00039	180000	
N[C@@H](CCNCc1ccc(Cl)cc1)C(=O)N1CCCC(F)C1 (stereo partly drawn)	500	0.00062		
N[C@@H](CCNCc1ccccc1Cl)C(=O)N1CCCCC1	345	0.00023	1.5e+06	
N[C@@H](CCNC1CCNCC1)C(=O)N1CCCCC1	64	0.085	750	
N[C@@H](CCNCc1ccc(OCc2ccccc2)cc1)C(=O)N1CCCCC1	192	0.00041	470000	
N#Cc1ccc(NCC[C@H](N)C(=O)N2CCCCC2)nc1	205	0.0046		
N[C@@H](CCN(Cc1ccc(Cl)cc1)Cc1ccc(Cl)cc1)C(=O)N1CCCCC1	> 125	0.0042	> 30000	
N[C@@H](CCNCc1ccccc1OCc1ccccc1)C(=O)N1CCCCC1	> 500	0.00039	> 1.3e+06	
COc1ccc(CNCC[C@H](N)C(=O)N2CCCCC2)c(OC)c1	> 500	0.0027	> 180000	
N[C@@H](CCNCc1cccs1)C(=O)N1CCCCC1	278	0.0008	350000	
N=C(N)NCC[C@H](N)C(=O)N1CCCCC1	545	0.0018		
COc1ccccc1CNCC[C@H](N)C(=O)N1CCCCC1	> 500	0.185	> 270000	
N#CC1CCCCN1C(=O)[C@@H](N)CCNCc1ccccc1 (stereo partly drawn)	68	0.004	17000	
N[C@@H](CCNc1ccccc1)C(=O)N1CCCCC1	250	0.0015		
N[C@@H](CCNCc1ccccc1)C(=O)N1CCCCC1	247	0.00203	120000	
CC1CCCCN1C(=O)[C@@H](N)CCNCc1ccc(Cl)cc1 (stereo partly drawn)	> 500	0.0023	> 220000	
N[C@@H](CCNCCCc1ccccc1)C(=O)N1CCCCC1	> 500	0.00191	> 260000	
NCC[C@H](NCc1ccccc1)C(=O)N1CCCCC1	> 1000	0.0125	> 80	
COc1ccc(CNCC[C@H](N)C(=O)N2CCCCC2)cc1	417	0.00066	630000	

Results, then the molecule that gave them:

IC50 (Dipeptidyl peptidase 4) [µM]	IC50 (Dipeptidyl peptidase 2) [µM]	SI [1]	IC50 [2] [µM]	Structure (SMILES)
418	0.0074			N[C@@H](CCNC(=O)c1ccccc1)C(=O)N1CCCCC1
13	0.0065	2000		N#CC1CCCCN1C(=O)[C@@H](N)CCNCc1ccc(Cl)cc1 (stereo partly drawn)
188	0.0009	210000		N[C@@H](CCNCCc1ccccc1)C(=O)N1CCCCC1
56	0.0235			N[C@@H](CCNc1ncccc1[N+](=O)[O-])C(=O)N1CCCCC1
496	0.0011	450000		N[C@@H](CCNCC1CCCCC1)C(=O)N1CCCCC1
179	0.0011	160000		N[C@@H](CCNCc1ccc2ccccc2c1)C(=O)N1CCCCC1
> 1000	0.0186	> 50000		N[C@@H](CCNC1CCCCC1)C(=O)N1CCCCC1
301	0.00131	230000		N[C@@H](CCNCc1cccc2ccccc12)C(=O)N1CCCCC1
> 500	0.00113	> 440000		CC1CCCN(C(=O)[C@@H](N)CCNCc2ccc(Cl)cc2)C1 (stereo partly drawn)
148	0.0011	130000		N[C@@H](CCNCc1ccc(Cl)cc1)C(=O)N1CC=CCC1
125	0.00075	170000		N[C@@H](CCNCc1ccncc1)C(=O)N1CCCCC1
> 1000	0.0547	> 20000		N[C@@H](CCNCc1ccc(Cl)cc1)C(=O)N1CCCC(O)C1 (stereo partly drawn)
151	0.038	4000		N#C[C@@H]1CCCCN1C(=O)[C@@H](N)CCN
518	0.0015			CC(=O)NCC[C@H](N)C(=O)N1CCCCC1
196	0.00022	890000		CN(CC[C@H](N)C(=O)N1CCCCC1)Cc1ccc(Cl)cc1
186	0.00134	140000		N[C@@H](CCNCc1cccc(Cl)c1)C(=O)N1CCCCC1
266	0.0006	440000		N[C@@H](CCN(Cc1ccccc1)Cc1ccccc1)C(=O)N1CCCCC1
> 1000	0.113	> 9000		N[C@@H](CCNCc1ccc(Cl)cc1)C(=O)N1CCC(O)CC1
> 500	0.00055	> 910000		CC1CCN(C(=O)[C@@H](N)CCNCc2ccc(Cl)cc2)CC1
